Where a name gives a salt, the structure may show the parent alone.
How the values were obtained:
Assay type in all cases: biochemical
[1] = target: T1, purified human activated protein C (Homo sapiens, UniProt P04070); test: Inhibition of purified human activated protein C, chromogenic substrate S2366; details: activated protein C 2 nM, inhibitor preincubated 20° C., 30 minutes, substrate pyroGlu-Pro-Arg-pNA 0.39 mM, read at 405 nm; read-out: IC50 with respect to activated protein C
T1 construct: purchased Diagnostica Stago
T1 sequence (P04070 212-461 limits assumed): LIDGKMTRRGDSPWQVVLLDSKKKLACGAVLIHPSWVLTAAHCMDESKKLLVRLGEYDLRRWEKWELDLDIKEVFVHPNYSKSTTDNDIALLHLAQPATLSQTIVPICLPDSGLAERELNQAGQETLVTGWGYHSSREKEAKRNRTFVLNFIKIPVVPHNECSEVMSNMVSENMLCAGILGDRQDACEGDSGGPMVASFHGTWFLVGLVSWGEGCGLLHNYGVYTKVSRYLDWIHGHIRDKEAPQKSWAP
T1 sequence (P04070 43-197 limits assumed): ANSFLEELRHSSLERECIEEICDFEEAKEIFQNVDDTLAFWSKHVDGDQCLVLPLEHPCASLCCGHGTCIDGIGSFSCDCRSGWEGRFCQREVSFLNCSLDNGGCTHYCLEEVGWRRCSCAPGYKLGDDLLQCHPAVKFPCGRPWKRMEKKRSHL
Protocol: (§1) The inhibitors, enzymes and substrates are diluted in the same buffer (0.01 mM phosphate buffer pH 7.4 containing 0.12M sodium chloride and 0.05% bovine serum albumin in the case of thrombin and 50 mM TRIS-HCl buffer pH 7.4 containing 0.12M sodium chloride, 3 mM calcium chloride and 0.05% bovine serum albumin in the case of activated protein C and plasmin) and then dispensed in a volume of 50 μl onto a polystyrene microplate.

purified human plasmin = target: T2, purified human plasmin (Homo sapiens, UniProt P00747); test: Inhibition of purified human plasmin, chromogenic substrate S2403 (selectivity); details: plasmin 2 nM, substrate <Glu-Phe-Lys-pNA 0.37 mM, read at 405 nm; read-out: IC50 with respect to plasmin
T2 construct: purified human plasmin (2 nM, Stago); purchased Stago
T2 sequence (P00747 581-810 limits assumed): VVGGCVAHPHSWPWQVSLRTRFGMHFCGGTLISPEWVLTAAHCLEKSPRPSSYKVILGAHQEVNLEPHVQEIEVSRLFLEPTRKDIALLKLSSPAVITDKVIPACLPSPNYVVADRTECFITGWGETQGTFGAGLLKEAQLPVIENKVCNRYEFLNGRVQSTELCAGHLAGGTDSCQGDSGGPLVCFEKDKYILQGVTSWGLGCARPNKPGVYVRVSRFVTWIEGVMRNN
T2 sequence (P00747 97-580 limits assumed): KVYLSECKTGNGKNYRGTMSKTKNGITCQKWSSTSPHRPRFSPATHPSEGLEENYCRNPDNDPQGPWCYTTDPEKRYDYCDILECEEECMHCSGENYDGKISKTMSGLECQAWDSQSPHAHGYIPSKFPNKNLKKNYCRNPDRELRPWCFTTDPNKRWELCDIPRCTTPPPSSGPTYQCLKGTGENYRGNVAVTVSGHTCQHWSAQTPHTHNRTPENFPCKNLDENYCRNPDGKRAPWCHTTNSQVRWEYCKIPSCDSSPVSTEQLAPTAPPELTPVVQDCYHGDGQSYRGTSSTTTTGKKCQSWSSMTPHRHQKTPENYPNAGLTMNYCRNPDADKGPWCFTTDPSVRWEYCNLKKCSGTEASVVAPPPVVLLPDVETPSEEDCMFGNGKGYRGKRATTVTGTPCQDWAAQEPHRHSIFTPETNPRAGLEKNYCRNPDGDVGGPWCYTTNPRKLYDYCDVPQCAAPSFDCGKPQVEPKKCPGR
Protocol: In order to assess in vitro the inhibitory activity of products of the invention on purified human activated protein C (Diagnostica Stago), the chromogenic substrate pyroGlu-Pro-Arg-pNA (0.39 mM, S2366, Chromogenix) was added to a given amount of activated protein C (2 nM) previously incubated with or without the inhibitor under test (20° C., 30 minutes).
In order to assess in vitro the selectivity with respect to thrombin and plasmin, the same protocol was applied to purified human thrombin (0.7 nM, Sigma) and to purified human plasmin (2 nM, Stago), using as substrates purified human fibrinogen (6 μM, Enzyme Research Laboratories) and the paracitroanilide peptide <Glu-Phe-Lys-pNA (0.37 mM, S2403, Chromogenix), respectively.
The inhibitors, enzymes and substrates are diluted in the same buffer ([…] phosphate buffer pH 7.4 containing 0.12M sodium chloride and 0.05% bovine serum albumin in the case of thrombin and 50 mM TRIS-HCl buffer pH 7.4 containing 0.12M sodium chloride, 3 mM calcium chloride and 0.05% bovine serum albumin in the case of activated protein C and plasmin) and then dispensed in a volume of 50 μl onto a polystyrene microplate.
The paranitroanilide liberated or the fibrin formed by the action of the serine protease is measured spectrophotometrically at 405 nm after reacting for from 10 to 30 minutes at 20° C.

purified human thrombin = purified human thrombin (Homo sapiens, UniProt P00734); test: Inhibition of purified human thrombin, fibrinogen substrate (selectivity); details: thrombin 0.7 nM, substrate human fibrinogen 6 μM, fibrin formed read at 405 nm; read-out: IC50 with respect to thrombin
Protocol: as §1

**Q.** For N=C(N)c1ccc(CNC(=O)C2(NC(=O)[C@H](NCC(=O)O)C3CCCCC3)Cc3ccccc3C2)cc1 [Example 1, {[(1R)-2-({2-[({4-Amidinobenzyl}-amino)-carbonyl]-indan-2-yl}-amino)-1-cyclohexyl-2-oxoethyl]-amino}acetic acid hydrochloride], which IC50 [1] is on record?
**A.** 0.82 µM

**Q.** What about the IC50 (purified human plasmin) of the same compound?
**A.** 1.1 µM

**Q.** And the IC50 (purified human thrombin)?
**A.** > 33 µM
